These are literature values, as cited in patent US20110064813A1, “USE OF SALSALATE WITH OR WITHOUT CAFFEINE AND WITH OR WITHOUT OMEGA 3, AND OTHER PHARMACEUTICAL COMPOUNDS IN A DISTINCTIVELY UNIQUE NANO-PARTICULATE CAPSULE AND TABLET” (priority 2009, published 2011).

Data set [1] has as its system patients presenting with Type 2 Diabetes (T2D). As to conditions: tablet forms of salsalate; T2D patients and obese patients.
For data set [2] the following is noted: administered orally.
The conditions of data set [3]: compared with aspirin and other NSAIDS.
For data set [4] the following is noted: acidic conditions.
In another data set the test system is pro-thrombin time. As to conditions: unlike Aspirin.
The subject of data set [5] is patients with rheumatoid arthritis. As to conditions: compared with diclofenac.

On to `O=C(Oc1ccccc1C(=O)O)c1ccccc1O` [salsalate, 2-(2-Hydroxybenzoyl)oxybenzoic acid], for which the “lowering of glucose levels” value in data set [1] was “experienced efficacy in the lowering of glucose levels”. Moreover, the “time to full benefit (plasma salicylate steady state)” value in data set [2] is 3 to 4 days. Further, in data set [3], the “fecal gastrointestinal blood loss” value was “less fecal gastrointestinal blood loss than aspirin”. For the same compound, in the data set with HIV-infected patients (HIV patients), the “salsalate induced liver dysfunction” value was “a significant number of HIV patients experienced salsalate induced liver dysfunction”. Further, in the data set with HIV-infected patients (HIV-infected patients), the endothelial function result was “improved endothelial function”. Moreover, the solubility result in data set [4] is “nearly insoluble”. For the same compound, the “inhibition of pro-thrombin time” value in the data set on pro-thrombin time was “does not inhibit”. In addition, the clinical efficacy entry in data set [5] is listed as “equal to diclofenac”.
